The values below come from patent publication US8410068B2, “Compounds for the treatment or alleviation of edema, and methods for their use” (Index Pharmaceuticals AB, priority 2007, dated 2013).

In data set [1] the test system is tetradecanoylphorbol 13-acetate (TPA) induced ear edema. The experiment in a line: TPA-induced ear edema model. Format: in vivo, mice. The note with it: for AUC reduction (%) TPA: 10 μg one single s.c. injection 20 minutes before TPA, compared to PBS control; for Peak reduction (%) TPA: 10 μg subcutaneously 20 minutes before induction of edema. How it is done: A stock solution of TPA was prepared by dissolving TPA in DMSO, 1 mg/mL, and was stored frozen at −80° C. For study B-E, a working solution was prepared with 200 μL of the TPA stock solution added to 800 μL acetone. The working solution was used the same day as it was prepared.
Each cage was identified by a cage card marked with study number, group number, ethical approval number, sex and animal ear numbers. The animals were individually marked on the tail with transverse lines corresponding to the animals' number, using a permanent-ink felt pen. An illustration of the protocols used for the different treatments is outlined in Table 4. The compounds were tested according to the same protocols with necessary modifications.
Intraperitoneal (i.p.) injections were performed by giving 100 μL in the lower right quadrant of the abdomen. Subcutaneous injections were done with 100 μL in the neck region. Intranasal administration was performed by letting the mouse inhale droplets into the nostrils, total volume 40 μL. All administrations were done on non-anesthetized mice.
(§1) Both outer ears of a non-anesthetized mouse were washed with mild soap (Palmolive, Sweden) using a soft tooth brush, the ears were dried with tissue and cleaned with tissue soaked with acetone. After allowing the acetone to evaporate, TPA or AA was applied on both sides, 10 μL, on each side of the ear with care to cover the whole ear. The mouse was held for 20 seconds to allow the solvent to evaporate.
Intraperitoneal injections were given in the lower right quadrant of the abdomen with the animal held in a supine position. Subcutaneous (s.c.) injections were given in the neck of the animals. Intranasal administrations were given to mice held in a slightly reclining position. With an adjustable micro-pipette 40 μL of the test substance was given in droplets on the nostrils and the mouse was allowed to aspirate at free will.
(§2) The ears of non-anesthetized mice were measured at different time points for up to 96 hours after the TPA was administered, or up to 24 hours for the AA model. The first measurements were done before the edema was induced. The thickness was recorded with a spring loaded dial micrometer (Limit, Thickness Gauge, accuracy 0.01 mm, contact area Ø6 mm, Luna AB, Allingsås, Sweden) in triplicates at all time points per ear.
(§3) The average thickness for both ears on a mouse was calculated and compared to the average thickness of the ears at the starting time point. The value obtained at the start of the experiment was set as 100%. The peak values and area under the curve (AUC) values for the treatment groups were calculated and compared to the inflamed control group, treated with PBS (set as 100%), and expressed as a percentage change (Δ% AUC).
(§4) Area under the curve (AUC) with base line set as 100 was calculated using GraphPad Prism version 4.03 for Windows (GraphPad Software, San Diego Calif. USA, www.graphpad.com).
AUC reduction and P-values were calculated against the positive control (TPA or AA+PBS).

Data set [2] deals with arachidonic acid (AA) induced ear edema. The experiment in a line: Arachidonic acid (AA) induced ear edema model. Format: in vivo, mice. The note with it: for AUC reduction (%) AA: 10 μg one single s.c. injection 20 minutes before AA, compared to PBS control; for Peak reduction (%) AA: 10 μg subcutaneously 20 minutes before induction of edema. How it is done: A stock solution of AA was prepared by diluting AA in acetone, 4 mg/10 μL, and was stored frozen at −80° C. A final working solution, 1 mg/10 μL, in acetone was prepared. The working solution was used within one hour after preparation.
as §1, §2, §3, §4
In addition to the experiments done with the control compounds and IDX0001, all other test compounds were investigated in a similar fashion in the TPA and/or AA ear edema models, where the test compounds were given subcutaneously (10 μg) 20 minutes before induction of edema. The results were expressed as reduction of peak value and reduction of area under curve (AUC) in Table 5.

Data set [3] deals with OVA induced airway inflammation. Kind of data set: Ovalbumin (OVA) induced allergic airway inflammation, BAL fluid cell counts. Particulars: prophylactic protocol, 50 μg/animal intranasal on day 16 and 21; for cell migration into BAL fluid: second experiment. Type of data set: in vivo, Balb/c mice. How it is done:
Mice were sensitized intraperitoneally with 200 μL OVA/aluminium hydroxide gel (1:3) on day 0 and 12 (see FIG. 6). OVA (chicken egg albumin grade V, Sigma, St. Louis, Mo.) was dissolved in saline and mixed with aluminium hydroxide gel to a concentration of 50 μg/mL by rotation at 4° C. for 3 h. On days 23, 26, 30 and 33 (see FIG. 6), mice were challenged in the lungs by inhalation of aerosolized OVA for 30 minutes using a Batelle exposure chamber. Aerosols were generated by a compressed-air nebulizer (Collison 6-jet) at airflow 7.4 L/min using a nebulizer concentration of 10 mg/mL OVA dissolved in PBS (Sigma, St Louis, Mo., USA). The control group with non-sensitized animals received no other treatment than aerosolized OVA at days 23, 26, 30 and 33.
In this OVA model (FIG. 6), a total of 4 oligonucleotides were tested, IDX9025, IDX9038, IDX9053 (Table 1, SEQ ID NO 2-4) and IDX0150 (Table 3, SEQ ID NO 11). The oligonucleotides were synthesized by biomers.net GmbH, Ulm, Germany and stored frozen at −20° C. The oligonucleotides were diluted with PBS to the working concentration (1,247 μg/μL) and kept at −20° C. until the first day of instillation, thereafter they were placed at 4° C.
In a first experiment, both prophylactic and therapeutic protocols were tested (see FIG. 6). The drug treatment consisted of intranasal instillations of IDX0150 (1,247 μg/μL, provided by InDex Pharmaceuticals AB, Stockholm, Sweden) on days 16 and 21 (prophylactic protocol), on days 30 and 33 (therapeutic protocol A) or on days 30 and 34 (therapeutic protocol B). The instillations in the therapeutic protocols (A & B) on days 30 and 33 were given 4 h after aerosol challenge. The second instillation in protocol B on day 34 was given 24 h after the last aerosol challenge. The drug was administered in 40 μL PBS giving a dose of ˜50 μg/mice (49.88 μg/mice). The two sensitized sham-treatment groups were instilled with PBS, the same total volume as for the treatment groups, according to either the prophylactic protocol (days 16 and 21) or to the therapeutic protocol A (days 30 and 33).
In a second experiment, since administration of IDX0150 in the first experiment using prophylactic protocol (FIG. 6) gave a significant reduction of airway inflammation (FIG. 7), three other substances were tested with the same protocol. The drug treatment consisted of intranasal instillations of IDX9025, IDX9038 and IDX9053 (Table 1) (1,247 μg/μL, provided by InDex Pharmaceuticals AB) on days 16 and 21 (see FIG. 6, prophylactic protocol). All substances were administered in 40 μL PBS giving a dose of ˜50 μg/mice (49.88 μg/mice). The two sensitized sham-treatment groups were instilled with PBS, the same total volume as for the treatment groups, according to the prophylactic protocol (days 16 and 21).
Mice were killed by cervical dislocation 42 h after the last OVA aerosol challenge. The trachea was cannulated with polyethylene tubing (Becton Dickinson, Sparks, Md., USA) and bronchoalveolar lavage (BAL) was performed using 4×1 mL aliquots of ice-cold Hank's balanced salt solution (HBSS) (Sigma, St Louis, Mo., USA). The BAL fluid was centrifuged (400 g, 10 min, 4° C.) and the BAL fluid cells were resuspended in 0.4 mL PBS. The total number of leukocytes counted using tryphan blue exclusion in a Barker chamber. Duplicate Cytospin (Cytospin 3, Shandon, Runcorn, UK) preparations of BAL fluid cells were stained with May Grünewald Giemsa for differential counts, using standard morphological criteria.
Statistical comparisons were performed using One-way analysis of variance (ANOVA) using Dunnett's post hoc correction to compare with sensitized PBS treated control mice (GraphPad Prism 3). Data are shown as mean±standard deviation. P<0.05 was considered significant.

As to “G*G*G*GCGTCTGCC*G*G*G (GGGGCGTCTGCCGGG; DNA, linkages s3 o8 s3 (s phosphorothioate, o phosphodiester), methylation of C not given here) [IDX9051, oligonucleotide; * = phosphorothioate modification]”, in data set [1], the “AUC reduction (%) TPA” value is given as −54.0% and the “Peak reduction (%) TPA” value is listed as −29.5%. In data set [2], the “AUC reduction (%) AA” value is listed as −67.5% and the “Peak reduction (%) AA” value is reported as −17.7%.

In the case of “T*C*C*CAAGATCGTCC*A*G*G (phosphorothioate linkages, as printed in the source, key not given here) [IDX9076, oligonucleotide; * = phosphorothioate modification]”, in data set [1], the “AUC reduction (%) TPA” value was −5.1% and the “Peak reduction (%) TPA” value is −2.6%. For the same compound, in data set [2], the “AUC reduction (%) AA” value was −45.7% and the “Peak reduction (%) AA” value is listed as −20.1%.

In the case of “T*G*C*CATTCGTCGATTTCGTC*G*A*T (TGCCATTCGTCGATTTCGTCGAT; DNA, linkages s3 o16 s3 (s phosphorothioate, o phosphodiester), methylation of C not given here) [IDX9025, oligonucleotide; * = phosphorothioate modification]”, in data set [1], the “AUC reduction (%) TPA” value is given as −57.8% and the “Peak reduction (%) TPA” value was −23.5%. In data set [2], the “AUC reduction (%) AA” value is listed as −81.9% and the “Peak reduction (%) AA” value is −14.9%. In data set [3], the “cell migration into BAL fluid” value is given as “no significant reduction of cell migration”.

Consider `O=C1CCN(c2ccccc2)N1` [Phenidone], for which, in data set [2] (FIG. 4, phenidone given 30 min before AA, IDX0150 given 20 min before AA), the “reduction of AUC” value is −39.1%.

“G*G*G*TCGTCTG*C*G*G (GGGTCGTCTGCGG; DNA, linkages s3 o6 s3 (s phosphorothioate, o phosphodiester), methylation of C not given here) [IDX9053]”: in data set [1], the “AUC reduction (%) TPA” value is listed as −39.0% and the “Peak reduction (%) TPA” value is −30.5%. In addition, the “cell migration into BAL fluid” value in data set [3] is on record as “no significant reduction of cell migration”.

In the case of “T*C*G*TCGTTCGGCCGATCG*T*C*C (TCGTCGTTCGGCCGATCGTCC; DNA, linkages s3 o14 s3 (s phosphorothioate, o phosphodiester), methylation of C not given here) [IDX9038, oligonucleotide; * = phosphorothioate modification]”, in data set [1], the “AUC reduction (%) TPA” value is reported as −47.4% and the “Peak reduction (%) TPA” value is recorded as −37.9%. The “migration of eosinophils into the BAL fluid” value in data set [3] (P<0.001) is listed as “significantly reduce”. For the same compound, the “migration of leukocytes into the BAL fluid” value in data set [3] (P<0.05) was “significantly reduce”.

Consider “T*C*C*GATCGTCC*A*G*G (TCCGATCGTCCAGG; DNA, linkages s3 o7 s3 (s phosphorothioate, o phosphodiester), methylation of C not given here) [IDX9078]”, for which, in data set [1], the “AUC reduction (%) TPA” value is recorded as −41.3% and the “Peak reduction (%) TPA” value is on record as −26.1%. Moreover, in data set [2], the “AUC reduction (%) AA” value was −79.4% and the “Peak reduction (%) AA” value is listed as −16.4%.

Consider “T*G*C*CATTCGTCGTTCTCGTC*G*T*T (phosphorothioate linkages, as printed in the source, key not given here) [IDX9024, oligonucleotide; * = phosphorothioate modification]”, for which, in data set [1], the “AUC reduction (%) TPA” value is given as −47.3% and the “Peak reduction (%) TPA” value is recorded as −30.9%. In data set [2], the “AUC reduction (%) AA” value is −58.5% and the “Peak reduction (%) AA” value is reported as −14.4%.
